According to patent publication EP4293034A1, “A NOVEL ACYLATED DERIVATE OF PHLORETIN AND ITS USE AS ANTIOXIDANT” (Consejo Superior de Investigaciones Científicas (CSIC), priority 2022, dated 2023):
≈ marks a conversion by molar mass, not a printed value. Where two headings read alike, the source gives them in different places. Marks after values point to notes of the source that are not given here.

Key:
[1] = (*) data from Gonzalez-Alfonso et al, 2021, cited from earlier work; for EC50: EC50 ± SD, read-out: ABTS assay EC50; for ABTS assay TEAC: TEAC ± SD
[2] = (*) data from Gonzalez-Alfonso et al, 2021, cited from earlier work; for EC50: EC50 ± SD, read-out: DPPH assay EC50; for DPPH assay TEAC: TEAC ± SD
[3] = previously reported, Gonzalez-Alfonso et al, 2021; cited from earlier work
[4] = water, 25 °C; (*) data from Gonzalez-Alfonso et al, 2021; cited from earlier work
[5] = Antioxidant activity, ABTS assay; format: biochemical; details: n = 3
Description: (§1) The capacity of the synthesized ester to reduce 2,2-diphenyl-1-picrylhydrazyl (DPPH) and the radical cation 2,2-azino-bis(3-ethylbenzothiazoline-6-sulfonic acid) diammonium salt (ABTS^·+) was assayed. (R)-Trolox was employed as antioxidant reference. Standard solutions with a concentration between 0 and 1000 µM for DPPH assay, and between 0 and 500 µM for ABTS assay, were prepared.

Aqueous solubility = format: physicochemical; details: water, 25 °C, 72 h
Description: The compound was incubated at 25 °C in water (saturated conditions) during 3 days under orbital stirring (1000 rpm). Then, the sample was centrifuged. A volume of 200 µL of the supernatant solution was analysed by triplicate, in a 96-well plate, using a phloretin calibration curve in methanol (0-200 µg/mL). The absorbance was measured by UV spectrophotometry (Tecan Infinite M200) at 297 nm.

[6] = Antioxidant activity, DPPH assay; format: biochemical; details: n = 3
Description: as §1

[7] = In vitro percutaneous absorption on Franz static diffusion cells; format: in vitro ADME; details: pig skin model, 24 h exposure, Figure 5
Description: The study was carried out in vitro with pig biopsies placed on Franz static diffusion cells (3 mL, 1.86 cm^2 of exposed area, diameter: […], Lara-Spiral, Courtenon, France) in order to determine the distribution of active compound (API) at the different skin layers, after an exposure time of 24 hours. The pig skin, provided by the Department of Cardiology of the Hospital Clinic (Barcelona, Spain), is considered morphologically and functionally equivalent to human skin for percutaneous absorption studies. Ultra-pure water was employed as receptor fluid, and cells were placed in a thermostated water bath (32 °C) containing a magnetic stirring device to obtain the skin surface temperature at 32 ± 1 °C. The integrity of the skin samples was evaluated by measuring the transepidermal water loss (TEWL) with Tewameter TM300 (Courage & Khazaka, Cologne, Germany) considering correct TEWL values under 15 g m^-2 h^-1. […] The different samples to be analyzed (W, SC, E, D and FR) were extracted and/or diluted in methanol (Merck, Darmstadt, Germany). The phloretin, its corresponding monoglucoside and acylated monoglucoside concentrations were analyzed by HPLC, as previously described. […] The results are shown as mean values (expressed as µg/cm2) ± standard deviations. […]

[8] = TEAC ± SD, calculated from EC50 of the acyl derivative and EC50 of (R)-Trolox

Row | Compound | EC50 [1] [µM] | ABTS assay TEAC [1] | EC50 [2] [µM] | DPPH assay TEAC [2] | skin absorption (in words) [3] | Solubility [4] | EC50 ([5]; EC50 ± SD) [µM] | ABTS assay TEAC [5, 8] | Solubility (Aqueous solubility) [µg/mL] | EC50 ([6]; EC50 ± SD) [µM] | DPPH assay TEAC [6, 8] | percutaneous absorption, increase versus phloretin and its α-glucoside ([7]; listed as acyl-glucoside of phloretin) | percutaneous absorption, increase versus phloretin and its α-glucoside ([7]; listed as acylglucoside of phloretin) [fold]
1 | O=C(CCc1ccc(O)cc1)c1c(O)cc(O[C@H]2O[C@H](CO)[C@@H](O)[C@H](O)[C@H]2O)cc1O [Phloretin 4'-O-α-D-(glucopyranoside), Phloretin 4'-O-α-D-Glucopyranoside] | 16.9 ± 0.5 | 0.64 ± 0.06 | 285 ± 20 | 8.1 ± 0.6 |  |  |  |  |  |  |  |  | 
2 | O=C(CCc1ccc(O)cc1)c1c(O)cc(O)cc1O [Phloretin, 2',4',6'-trihydroxy-3-(4-hydroxyphenyl)-propiophenone] | 11.7 ± 0.6 | 0.45 ± 0.04 | 217 ± 14 | 6.2 ± 0.4 | the same absorption pattern, without significant differences | 23.2 ± 0.3* mg/L |  |  |  |  |  |  | 
3 | CCCCCCCCCCCC(=O)OC[C@H]1O[C@H](Oc2cc(O)c(C(=O)CCc3ccc(O)cc3)c(O)c2)[C@H](O)[C@@H](O)[C@@H]1O [phloretin 4'-O-(6-O-lauroyl)-α-D-glucopyranoside] |  |  |  |  |  |  | 14.7 ± 0.7 | 0.47 ± 0.04 | 6.0 ± 0.2 (≈ 9.7 µM) | 439 ± 13 | 11.4 ± 0.8 | approx. 3 fold | 3
